Results from patent US7179832B2, “Glycogen synthase kinase 3β inhibitor, composition and process for the preparation thereof” (Crystalgenomics, Inc., priority 2003, dated 2007).

Target: GSK-3β (Homo sapiens, UniProt P49841)
Assay: Assay for GSK-3β inhibiting activity (32P-ATP, phospho-CREB peptide substrate, filter paper, CPM)
Format: biochemical
Conditions: GSK-3β inhibiting activity; 100 nM GSK-3β protein, 100 μM phospho-CREB peptide, 100 μM ATP, 30° C. for 1 hour; read-out: IC50

GSK-3β, sequence (P49841 whole entry): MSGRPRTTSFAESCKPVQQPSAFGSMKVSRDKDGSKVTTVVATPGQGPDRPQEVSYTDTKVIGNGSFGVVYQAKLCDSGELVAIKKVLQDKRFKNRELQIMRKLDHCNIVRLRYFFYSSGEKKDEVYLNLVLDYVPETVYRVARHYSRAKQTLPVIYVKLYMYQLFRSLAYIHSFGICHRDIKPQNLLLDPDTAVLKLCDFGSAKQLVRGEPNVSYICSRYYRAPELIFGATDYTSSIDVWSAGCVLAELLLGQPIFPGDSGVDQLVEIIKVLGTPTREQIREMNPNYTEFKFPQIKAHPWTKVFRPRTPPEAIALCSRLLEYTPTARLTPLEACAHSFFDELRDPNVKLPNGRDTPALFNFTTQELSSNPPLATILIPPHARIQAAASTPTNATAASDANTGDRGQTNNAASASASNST

SMILES	IC50
O=C(NCCc1ccc(O)cc1)c1ccc(O)c2[nH]c(-c3ccc(Cl)cc3)nc12 [Compound 74]	> 1000 nM
O=C(Nc1ccccc1)c1ccc(O)c2[nH]c(-c3ccc(Cl)cc3Cl)nc12 [Compound 22]	> 1000 nM
O=C(NCCCN1CCOCC1)c1ccc(O)c2[nH]c(-c3ccc(Cl)cc3)nc12 [Compound 171]	> 1000 nM
Cc1ccc(S(=O)(=O)NCCc2ccc(NC(=O)c3ccc(O)c4[nH]c(-c5ccc(Cl)cc5)nc34)cc2)cc1 [Compound 16]	700 nM
O=C(NCCc1ccc(O)cc1)c1ccc(O)c2[nH]c(-c3ccccc3)nc12 [Compound 58]	670 nM
NCCc1ccc(NC(=O)c2ccc(O)c3[nH]c(-c4ccccc4)nc23)cc1 [Compound 8]	> 1000 nM
O=C(NCCCN1CCOCC1)c1ccc(O)c2[nH]c(-c3ccc(Cl)cc3Cl)nc12 [Compound 179]	> 1000 nM

Stronger by IC50, values ahead:

IC50	SMILES
3 nM	O=C(NCCCn1ccnc1)c1ccc(O)c2nc(-c3ccc(F)c(Cl)c3)[nH]c12 [Compound 203]
190 nM	O=C(NCCc1ccc(N2CCOCC2)cc1)c1ccc(O)c2[nH]c(-c3ccc(F)cc3)nc12 [Compound 132]
70 nM	CCS(=O)(=O)Nc1ccc(CCNC(=O)c2ccc(O)c3[nH]c(-c4ccc(Cl)cc4)nc23)cc1 [Compound 80]
1 nM	CS(=O)(=O)Nc1ccc(CCNC(=O)c2ccc(O)c3[nH]c(-c4ccc(F)cc4)nc23)cc1 [Compound 114]
190 nM	CCCCC(=O)Nc1ccc(CCNC(=O)c2ccc(O)c3[nH]c(-c4ccc(Cl)cc4Cl)nc23)cc1 [Compound 113]
30 nM	CS(=O)(=O)Nc1ccc(CCNC(=O)c2ccc(O)c3[nH]c(-c4ccccc4)nc23)cc1 [Compound 64]
210 nM	O=C(NCCCn1ccnc1-c1ccccc1)c1ccc(O)c2[nH]c(-c3ccc(Cl)cc3Cl)nc12 [Compound 180]
360 nM	CCS(=O)(=O)NCCc1ccc(NC(=O)c2ccc(O)c3[nH]c(-c4ccccc4)nc23)cc1 [Compound 13]
160 nM	O=C(NCCc1ccc(N2C(=O)c3ccccc3C2=O)cc1)c1ccc(O)c2[nH]c(-c3ccccc3)nc12 [Compound 67]
